Measured values: US12281149B2, “Modulators of G-protein coupled receptors” (priority 2021, dated 2025)
pEC50: −log10 of the molar value. *1 amine or outer side, *2 acyl side, *3 side chain or, on linkers, in order; H or OH if unused. Where a SMILES comes first, the peptide text is derived from it. Side-chain parts run from the residue outwards. [ ]: non-standard residue; d: D form. The star is where a group is joined. C20 diacid = O=C(O)CCCCCCCCCCCCCCCCCCC(=O)*; αMePhe(2-F) = C[C@](N)(Cc1ccccc1F)C(=O)O; γGlu = O=C(O)[C@H](CCC(=O)[*:2])N[*:1]; X50 = CC(C)(N*)c1ccc(F)c(F)c1; X8 = O=C(CCNCc1cc(O)cc(F)c1)*; Suc = O=C(CCC(=O)[*:2])[*:1]; AEEA = NCCOCCOCC(=O)O; Aib = CC(C)(N)C(=O)O; CO = O=C([*:1])[*:2]; X12 = Fc1cccc(N*)c1; GABA = NCCCC(=O)O; βAla = NCCC(=O)O; NHPr = CCCN*

Columns and labels:
Type in all cases: cell-based
[1] = target: T1, GIP receptor (Homo sapiens, UniProt P48546); test: HitHunter cAMP assay, GIP receptor; conditions: for pEC50: CHO cells stably expressing GIP receptor, cAMP accumulation, 30 min, read-out: EC50 GIP-1R; for Emax: CHO cells, cAMP, normalized to maximum signal from GIP (high) and DMSO (low), read-out: Emax GIP-1R
T1 sequence (P48546 22-466): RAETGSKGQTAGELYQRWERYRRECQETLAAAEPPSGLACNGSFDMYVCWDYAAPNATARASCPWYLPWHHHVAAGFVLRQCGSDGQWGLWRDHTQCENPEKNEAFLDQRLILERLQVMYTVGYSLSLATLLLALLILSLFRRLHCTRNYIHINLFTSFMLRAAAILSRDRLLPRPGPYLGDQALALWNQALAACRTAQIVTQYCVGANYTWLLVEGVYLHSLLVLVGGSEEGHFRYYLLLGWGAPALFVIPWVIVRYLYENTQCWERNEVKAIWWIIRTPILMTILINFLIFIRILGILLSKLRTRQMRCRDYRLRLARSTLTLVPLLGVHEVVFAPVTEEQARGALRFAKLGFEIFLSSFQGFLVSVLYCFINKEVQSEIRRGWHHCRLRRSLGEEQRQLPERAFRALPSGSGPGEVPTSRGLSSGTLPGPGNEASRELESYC

[2] = target: T2, GLP-1 receptor (Homo sapiens, UniProt P43220); test: HitHunter cAMP assay, GLP-1 receptor; conditions: for pEC50: CHO cells stably expressing human GLP-1 receptor, cAMP accumulation, 30 min, read-out: EC50 GLP-1R; for Emax: CHO cells, cAMP, normalized to maximum signal from GLP-1 (high) and DMSO (low), read-out: Emax GLP-1R
Protocol: CAMP accumulation was measured in Chinese hamster ovary (CHO) cells stably expressing the human GLP-1 receptor or GIP receptor using the HitHunter CAMP Assay for Small Molecules Kit (Eurofins). Briefly, cells were grown in Ham's F12 Nutrient Mix with 10% FBS and lifted with Cell dissociation buffer, Enzyme free, PBS based (ThermoFisher). Cells were pelleted and resuspended in Hank's buffered saline solution with 10 mM Hepes and 625 μM 3-isobutyl-1-methylxanthine. The antibody reagent was then added to cells at a 1:2 ratio and 5 μL of mixture was seeded in 384-well small volume white assay plates, at 10,000 cells/well. Cells were then treated with 50 nl compound in DMSO using an ECHO 550 acoustic dispenser (Labcyte) in a 20-point dose response format in triplicate for 30 min. Cells were the lysed and detection reagents added according to the manufacturer's protocol. After overnight incubation, luminescence was measured using a Perkin Elmer Envision plate reader. Raw data was normalized to the maximum signal from GLP-1 or GIP (high) and DMSO (low). Dose response curves were analyzed using GraphPad Prism 9.0.

[3] = target: T1, GIP receptor; test: PathHunter β-arrestin assay, GIP receptor; set-up: host or cells: PathHunter CHO-K1 GIPR β-Arrestin Cell Line; conditions: β-arrestin-2 recruitment, PathHunter CHO-K1 GIPR β-Arrestin Cell Line, 90 min at 37° C.; normalized to GIP; read-out: GIPR β Arrestin EC50
[4] = target: T2, GLP-1 receptor; test: PathHunter β-arrestin assay, GLP-1 receptor; set-up: host or cells: PathHunter CHO-K1 GLP1R β-Arrestin Cell Line; conditions: β-arrestin-2 recruitment, PathHunter CHO-K1 GLP1R β-Arrestin Cell Line, 90 min at 37° C.; normalized to GLP-1; read-out: GLP-1R β Arrestin EC50

T2 sequence (P43220 24-463): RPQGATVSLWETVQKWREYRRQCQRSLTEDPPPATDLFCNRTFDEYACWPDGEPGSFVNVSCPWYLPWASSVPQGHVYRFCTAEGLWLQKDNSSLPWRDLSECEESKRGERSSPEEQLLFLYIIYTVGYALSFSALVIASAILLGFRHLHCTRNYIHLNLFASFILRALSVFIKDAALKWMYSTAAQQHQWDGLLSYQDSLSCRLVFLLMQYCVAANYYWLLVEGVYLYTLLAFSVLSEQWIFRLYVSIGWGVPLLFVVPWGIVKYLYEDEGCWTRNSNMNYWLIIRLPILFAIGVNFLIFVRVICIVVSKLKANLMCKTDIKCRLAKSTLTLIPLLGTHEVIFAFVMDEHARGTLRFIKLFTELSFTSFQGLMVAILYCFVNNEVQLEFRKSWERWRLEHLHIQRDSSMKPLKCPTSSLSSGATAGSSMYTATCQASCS

| SMILES | pEC50 [1] | Emax [1] [%] | pEC50 [2] | Emax [2] [%] | pEC50 [3] | pEC50 [4] |
| --- | --- | --- | --- | --- | --- | --- |
| CC[C@H](C)[C@H](NC(=O)[C@H](CC(C)C)NC(=O)[C@H](Cc1c[nH]c2ccccc12)NC(=O)[C@H](CCC(N)=O)NC(=O)[C@@H](NC(=O)[C@H](Cc1ccccc1)NC(=O)[C@H](C)NC(=O)[C@H](CCCCNC(=O)COCCOCCNC(=O)COCCOCCNC(=O)CC[C@H](NC(=O)CCCCCCCCCCCCCCCCCCC(=O)O)C(=O)O)NC(=O)[C@H](CCC(N)=O)NC(=O)[C@H](C)NC(=O)[C@@H](NC(=O)[C@H](CCCCN)NC(=O)[C@H](CC(=O)O)NC(=O)[C@H](CC(C)C)NC(=O)C(C)(C)NC(=O)[C@@H](NC(=O)[C@H](CO)NC(=O)[C@H](Cc1ccc(O)cc1)NC(=O)[C@H](CC(=O)O)NC(=O)[C@H](CO)NC(=O)[C@@H](NC(=O)[C@H](Cc1ccccc1)NC(=O)[C@@H](NC(=O)CNC(=O)[C@H](CCC(=O)O)NC(=O)CCNCc1cc(O)cc(F)c1)[C@@H](C)O)[C@@H](C)O)[C@@H](C)CC)[C@@H](C)CC)C(C)C)C(=O)N[C@@H](C)C(=O)NCC(=O)NCC(=O)N1CCC[C@H]1C(=O)N[C@@H](CO)C(=O)N[C@@H](CO)C(=O)NCC(=O)N[C@@H](C)C(=O)N1CCC[C@H]1C(=O)N1CCC[C@H]1C(=O)N1CCC[C@H]1C(=O)N[C@@H](CO)C(N)=O [Compound 277] (X8-EGTFTSDYSI[Aib]LDKIAQK([AEEA-AEEA-γGlu-C20 diacid])AFVQWLIAGGPSSGAPPPS-NH2) | 6.00 to 7.00 | 6 | 8.00 to 9.00 | 89 | < 6.00 | < 6.00 |
| CC[C@H](C)[C@H](NC(=O)[C@H](CC(C)C)NC(=O)[C@H](Cc1c[nH]c2ccccc12)NC(=O)[C@H](CCC(N)=O)NC(=O)[C@@H](NC(=O)[C@H](Cc1ccccc1)NC(=O)[C@H](C)NC(=O)[C@H](CCCCNC(=O)COCCOCCNC(=O)COCCOCCNC(=O)CC[C@H](NC(=O)CCCCCCCCCCCCCCCCCCC(=O)O)C(=O)O)NC(=O)[C@H](CCC(N)=O)NC(=O)[C@H](C)NC(=O)[C@@H](NC(=O)[C@H](CCCCN)NC(=O)[C@H](CC(=O)O)NC(=O)[C@H](CC(C)C)NC(=O)C(C)(C)NC(=O)[C@@H](NC(=O)[C@H](CO)NC(=O)[C@H](Cc1ccc(O)cc1)NC(=O)[C@H](CC(=O)O)NC(=O)[C@H](CO)NC(=O)[C@@H](NC(=O)[C@H](Cc1ccccc1)NC(=O)[C@@H](NC(=O)CNC(=O)[C@H](CCC(=O)O)NC(=O)CCC(=O)NC(C)(C)c1ccc(F)c(F)c1)[C@@H](C)O)[C@@H](C)O)[C@@H](C)CC)[C@@H](C)CC)C(C)C)C(=O)N[C@@H](C)C(=O)NCC(=O)NCC(=O)N1CCC[C@H]1C(=O)N[C@@H](CO)C(=O)N[C@@H](CO)C(=O)NCC(=O)N[C@@H](C)C(=O)N1CCC[C@H]1C(=O)N1CCC[C@H]1C(=O)N1CCC[C@H]1C(=O)N[C@@H](CO)C(N)=O [Compound 280] ({X50-Suc}-EGTFTSDYSI[Aib]LDKIAQK([AEEA-AEEA-γGlu-C20 diacid])AFVQWLIAGGPSSGAPPPS-NH2) | 8.00 to 9.00 | 114 | 8.00 to 9.00 | 90 | < 6.00 | < 6.00 |
| CCCNC(=O)NC(C)(C)C(=O)NCCC(=O)N[C@@H](CCC(=O)O)C(=O)NCC(=O)N[C@H](C(=O)N[C@@H](Cc1ccccc1)C(=O)N[C@H](C(=O)N[C@@H](CO)C(=O)N[C@@H](CC(=O)O)C(=O)N[C@@H](Cc1ccc(O)cc1)C(=O)N[C@@H](CO)C(=O)N[C@H](C(=O)NC(C)(C)C(=O)N[C@@H](CC(C)C)C(=O)N[C@@H](CC(=O)O)C(=O)N[C@@H](CCCCN)C(=O)N[C@H](C(=O)N[C@@H](C)C(=O)N[C@@H](CCC(N)=O)C(=O)N[C@@H](CCCCNC(=O)COCCOCCNC(=O)COCCOCCNC(=O)CC[C@H](NC(=O)CCCCCCCCCCCCCCCCCCC(=O)O)C(=O)O)C(=O)N[C@@H](C)C(=O)N[C@@H](Cc1ccccc1)C(=O)N[C@H](C(=O)N[C@@H](CCC(N)=O)C(=O)N[C@@H](Cc1c[nH]c2ccccc12)C(=O)N[C@@H](CC(C)C)C(=O)N[C@H](C(=O)N[C@@H](C)C(=O)NCC(=O)NCC(=O)N1CCC[C@H]1C(=O)N[C@@H](CO)C(=O)N[C@@H](CO)C(=O)NCC(=O)N[C@@H](C)C(=O)N1CCC[C@H]1C(=O)N1CCC[C@H]1C(=O)N1CCC[C@H]1C(=O)N[C@@H](CO)C(N)=O)[C@@H](C)CC)C(C)C)[C@@H](C)CC)[C@@H](C)CC)[C@@H](C)O)[C@@H](C)O [Compound 281] ({NHPr-CO}-[Aib][βAla]EGTFTSDYSI[Aib]LDKIAQK([AEEA-AEEA-γGlu-C20 diacid])AFVQWLIAGGPSSGAPPPS-NH2) | 8.00 to 9.00 | 108 | 9.00 to 10.00 | 95 | < 6.00 | < 6.00 |
| CC[C@H](C)[C@H](NC(=O)[C@H](CC(C)C)NC(=O)[C@H](Cc1c[nH]c2ccccc12)NC(=O)[C@H](CCC(N)=O)NC(=O)[C@@H](NC(=O)[C@H](Cc1ccccc1)NC(=O)[C@H](C)NC(=O)[C@H](CCCCNC(=O)COCCOCCNC(=O)COCCOCCNC(=O)CC[C@H](NC(=O)CCCCCCCCCCCCCCCCCCC(=O)O)C(=O)O)NC(=O)[C@H](CCC(N)=O)NC(=O)[C@H](C)NC(=O)[C@@H](NC(=O)[C@H](CCCCN)NC(=O)[C@H](CC(=O)O)NC(=O)[C@H](CC(C)C)NC(=O)C(C)(C)NC(=O)[C@@H](NC(=O)[C@H](CO)NC(=O)[C@H](Cc1ccc(O)cc1)NC(=O)[C@H](CC(=O)O)NC(=O)[C@H](CO)NC(=O)[C@@H](NC(=O)[C@](C)(Cc1ccccc1F)NC(=O)[C@@H](NC(=O)CNC(=O)[C@H](CCC(=O)O)NC(=O)CCCNC(=O)Nc1cccc(F)c1)[C@@H](C)O)[C@@H](C)O)[C@@H](C)CC)[C@@H](C)CC)C(C)C)C(=O)N[C@@H](C)C(=O)NCC(=O)NCC(=O)N1CCC[C@H]1C(=O)N[C@@H](CO)C(=O)N[C@@H](CO)C(=O)NCC(=O)N[C@@H](C)C(=O)N1CCC[C@H]1C(=O)N1CCC[C@H]1C(=O)N1CCC[C@H]1C(=O)N[C@@H](CO)C(N)=O [Compound 282] ({X12-CO-GABA}-EGT[αMePhe(2-F)]TSDYSI[Aib]LDKIAQK([AEEA-AEEA-γGlu-C20 diacid])AFVQWLIAGGPSSGAPPPS-NH2) | 7.00 to 8.00 | 90 | 9.00 to 10.00 | 92 | < 6.00 | < 6.00 |
